# Measurements reported in PubChem BioAssay AID2060898 (Molecular Pharmacology Branch, DTP, NCI, 2025).
# System: 616215-338-R-J1-PDC complex spheroid viability
# Assay: Anticancer human tumor 616215-338-R-J1-PDC patient-derived colon adenocarcinoma cell line growth inhibition [RAS]
# Settings: for IC50: curve of first compound; for viability, T/C: stronger effect = lower value
# In short: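 Multi-cell-type spheroids: tumor cells plus HUVEC endothelial cells and mesenchymal stem cells. RAS-pathway inhibitors were combined with targeted agents, each dosed in half-log steps down from clinical Cmax, or from 10 microM when Cmax was unknown.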
# [1] = second compound 0.000949 µM, first compound 0.0316 µM
# [2] = second compound 0.000949 µM, first compound 0.1 µM
# [3] = second compound 0.003 µM, first compound 0.0316 µM
# [4] = second compound 0.003 µM, first compound 0.1 µM
# [5] = second compound 0.00949 µM, first compound 0.0316 µM
# [6] = second compound 0.00949 µM, first compound 0.1 µM
# [7] = second compound 0.03 µM, first compound 0.0316 µM
# [8] = second compound 0.03 µM, first compound 0.1 µM
# [9] = second compound 0.0949 µM, first compound 0.0316 µM
# [10] = second compound 0.0949 µM, first compound 0.1 µM
# [11] = second compound 0.3 µM, first compound 0.0316 µM
# [12] = second compound 0.3 µM, first compound 0.1 µM
# 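Also: spheroids exposed to agents for seven days before viability readout.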
# 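For viability, T/C in this document: 100% = DMSO vehicle control viability.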
smiles,measurement,setting,value
CC(C)n1nc(-c2ccc3oc(N)nc3c2)c2c(N)ncnc21 + CCn1c(-c2cc(N3CCN(C)CC3)cnc2C(C)OC)c2c3cc(ccc31)-c1csc(n1)CC(NC(=O)C1CC1C)C(=O)N1CCCC(N1)C(=O)OCC(C)(C)C2,IC50,second compound 0.000949 µM,> 0.1 µM
same,IC50,second compound 0.003 µM,0.0771 µM
same,IC50,second compound 0.00949 µM,0.0428 µM
same,IC50,second compound 0.03 µM,< 0.000316 µM
same,IC50,second compound 0.0949 µM,< 0.000316 µM
same,IC50,second compound 0.3 µM,< 0.000316 µM
same,"viability, T/C","second compound 0.000949 µM, first compound 0.000316 µM",103%
same,"viability, T/C","second compound 0.000949 µM, first compound 0.001 µM",93.7%
same,"viability, T/C","second compound 0.000949 µM, first compound 0.00316 µM",110%
same,"viability, T/C","second compound 0.000949 µM, first compound 0.01 µM",116%
same,"viability, T/C",[1],118%
same,"viability, T/C",[2],63.8%
same,"viability, T/C","second compound 0.003 µM, first compound 0.000316 µM",114%
same,"viability, T/C","second compound 0.003 µM, first compound 0.001 µM",108%
same,"viability, T/C","second compound 0.003 µM, first compound 0.00316 µM",108%
same,"viability, T/C","second compound 0.003 µM, first compound 0.01 µM",103%
same,"viability, T/C",[3],86.2%
same,"viability, T/C",[4],39.2%
same,"viability, T/C","second compound 0.00949 µM, first compound 0.000316 µM",77.2%
same,"viability, T/C","second compound 0.00949 µM, first compound 0.001 µM",71.4%
same,"viability, T/C","second compound 0.00949 µM, first compound 0.00316 µM",64.5%
same,"viability, T/C","second compound 0.00949 µM, first compound 0.01 µM",78.8%
same,"viability, T/C",[5],54.8%
same,"viability, T/C",[6],36.4%
same,"viability, T/C","second compound 0.03 µM, first compound 0.000316 µM",41%
same,"viability, T/C","second compound 0.03 µM, first compound 0.001 µM",51.2%
same,"viability, T/C","second compound 0.03 µM, first compound 0.00316 µM",39.5%
same,"viability, T/C","second compound 0.03 µM, first compound 0.01 µM",37.3%
same,"viability, T/C",[7],39%
same,"viability, T/C",[8],25%
same,"viability, T/C","second compound 0.0949 µM, first compound 0.000316 µM",41%
same,"viability, T/C","second compound 0.0949 µM, first compound 0.001 µM",39.3%
same,"viability, T/C","second compound 0.0949 µM, first compound 0.00316 µM",31.8%
same,"viability, T/C","second compound 0.0949 µM, first compound 0.01 µM",30.9%
same,"viability, T/C",[9],30.9%
same,"viability, T/C",[10],21.3%
same,"viability, T/C","second compound 0.3 µM, first compound 0.000316 µM",35.9%
same,"viability, T/C","second compound 0.3 µM, first compound 0.001 µM",31.1%
same,"viability, T/C","second compound 0.3 µM, first compound 0.00316 µM",35.9%
same,"viability, T/C","second compound 0.3 µM, first compound 0.01 µM",30.1%
same,"viability, T/C",[11],27.8%
same,"viability, T/C",[12],22.8%
CC1(O)CCCC1n1c(=O)c(C(F)F)cc2cnc(NC3CCN(S(C)(=O)=O)CC3)nc21 (centres undefined) + CCn1c(-c2cc(N3CCN(C)CC3)cnc2C(C)OC)c2c3cc(ccc31)-c1csc(n1)CC(NC(=O)C1CC1C)C(=O)N1CCCC(N1)C(=O)OCC(C)(C)C2,IC50,second compound 0.000949 µM,1.13 µM
same,IC50,second compound 0.003 µM,0.199 µM
same,IC50,second compound 0.00949 µM,0.0374 µM
same,IC50,second compound 0.03 µM,< 0.0316 µM
same,IC50,second compound 0.0949 µM,< 0.0316 µM
same,IC50,second compound 0.3 µM,< 0.0316 µM
same,"viability, T/C",[1],122%
same,"viability, T/C",[2],111%
same,"viability, T/C","second compound 0.000949 µM, first compound 0.316 µM",54.4%
same,"viability, T/C","second compound 0.000949 µM, first compound 1 µM",47.8%
same,"viability, T/C","second compound 0.000949 µM, first compound 3.16 µM",46.6%
same,"viability, T/C","second compound 0.000949 µM, first compound 10 µM",2%
same,"viability, T/C",[3],113%
same,"viability, T/C",[4],65.1%
same,"viability, T/C","second compound 0.003 µM, first compound 0.316 µM",30.5%
same,"viability, T/C","second compound 0.003 µM, first compound 1 µM",36.8%
same,"viability, T/C","second compound 0.003 µM, first compound 3.16 µM",38.9%
same,"viability, T/C","second compound 0.003 µM, first compound 10 µM",4.05%
same,"viability, T/C",[5],49.9%
same,"viability, T/C",[6],51.1%
same,"viability, T/C","second compound 0.00949 µM, first compound 0.316 µM",29.7%
same,"viability, T/C","second compound 0.00949 µM, first compound 1 µM",23.9%
same,"viability, T/C","second compound 0.00949 µM, first compound 3.16 µM",31.9%
same,"viability, T/C","second compound 0.00949 µM, first compound 10 µM",2.73%
same,"viability, T/C",[7],47.4%
same,"viability, T/C",[8],28%
same,"viability, T/C","second compound 0.03 µM, first compound 0.316 µM",22.7%
same,"viability, T/C","second compound 0.03 µM, first compound 1 µM",22.2%
same,"viability, T/C","second compound 0.03 µM, first compound 3.16 µM",36.3%
same,"viability, T/C","second compound 0.03 µM, first compound 10 µM",2.37%
same,"viability, T/C",[9],35%
same,"viability, T/C",[10],27.4%
same,"viability, T/C","second compound 0.0949 µM, first compound 0.316 µM",21.3%
same,"viability, T/C","second compound 0.0949 µM, first compound 1 µM",22.1%
same,"viability, T/C","second compound 0.0949 µM, first compound 3.16 µM",28.7%
same,"viability, T/C","second compound 0.0949 µM, first compound 10 µM",2.08%
same,"viability, T/C",[11],31%
same,"viability, T/C",[12],32%
same,"viability, T/C","second compound 0.3 µM, first compound 0.316 µM",16.4%
same,"viability, T/C","second compound 0.3 µM, first compound 1 µM",30.3%
same,"viability, T/C","second compound 0.3 µM, first compound 3.16 µM",29.7%
same,"viability, T/C","second compound 0.3 µM, first compound 10 µM",4.15%
